Measurements: ChEMBL document CHEMBL4800728, “Data for DCP probe JNJ-54119936” (2021)

Columns and labels:
[1] = target: Nuclear receptor ROR-alpha (Homo sapiens) (UniProt P35398); test: ThermoFluor Binding Assay (RORA)
[2] = target: Nuclear receptor ROR-beta (Homo sapiens) (UniProt Q92753); test: ThermoFluor Binding Assay (RORB)
Nuclear receptor ROR-beta (Homo sapiens), sequence (Q92753 whole entry): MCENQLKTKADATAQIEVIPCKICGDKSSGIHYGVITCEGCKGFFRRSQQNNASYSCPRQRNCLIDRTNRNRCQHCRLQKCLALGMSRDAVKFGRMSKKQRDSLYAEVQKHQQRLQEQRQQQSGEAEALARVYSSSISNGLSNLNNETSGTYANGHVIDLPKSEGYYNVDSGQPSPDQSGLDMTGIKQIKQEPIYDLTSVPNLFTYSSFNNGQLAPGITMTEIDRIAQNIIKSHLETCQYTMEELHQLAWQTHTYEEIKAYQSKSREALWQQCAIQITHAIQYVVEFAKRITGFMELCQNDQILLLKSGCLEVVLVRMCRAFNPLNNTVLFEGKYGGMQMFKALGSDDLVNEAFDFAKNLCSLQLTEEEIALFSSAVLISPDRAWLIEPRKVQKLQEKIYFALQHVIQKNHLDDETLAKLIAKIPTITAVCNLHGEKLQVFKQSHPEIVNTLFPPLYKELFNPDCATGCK

Nuclear receptor ROR-alpha (Homo sapiens), sequence (P35398 whole entry): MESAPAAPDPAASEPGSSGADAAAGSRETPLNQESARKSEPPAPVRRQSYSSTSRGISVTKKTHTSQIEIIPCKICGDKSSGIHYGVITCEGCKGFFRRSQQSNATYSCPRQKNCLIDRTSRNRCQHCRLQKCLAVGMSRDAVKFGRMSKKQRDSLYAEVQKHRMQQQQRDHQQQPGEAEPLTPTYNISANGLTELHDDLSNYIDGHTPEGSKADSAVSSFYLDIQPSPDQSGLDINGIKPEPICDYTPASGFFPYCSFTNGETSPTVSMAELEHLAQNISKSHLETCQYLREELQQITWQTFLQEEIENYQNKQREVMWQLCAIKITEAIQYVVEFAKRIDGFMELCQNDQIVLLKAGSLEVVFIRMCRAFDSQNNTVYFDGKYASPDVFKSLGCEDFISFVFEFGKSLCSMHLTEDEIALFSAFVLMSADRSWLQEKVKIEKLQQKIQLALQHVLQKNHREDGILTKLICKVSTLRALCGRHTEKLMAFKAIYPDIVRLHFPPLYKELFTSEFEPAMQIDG

COc1nc2ccc([C@@](O)(c3ccc(Cl)cc3)c3cncn3C)cc2c(Cl)c1Cc1ccc(-n2cccn2)cc1
qKD [1]: 16.8 µM | qKD [2]: 40 µM
